What follows are compounds tested against T1, IRAK4 (Homo sapiens, UniProt Q9NWZ3) (assay: IRAK-4 activity inhibition assay (Caliper)). Conditions: 3.5 nM IRAK4, 37 μM ATP, 1.5 μM Peptide 8.
T1 construct: purchased CARNA Bioscience 09-145
T1 sequence (Q9NWZ3 1-460): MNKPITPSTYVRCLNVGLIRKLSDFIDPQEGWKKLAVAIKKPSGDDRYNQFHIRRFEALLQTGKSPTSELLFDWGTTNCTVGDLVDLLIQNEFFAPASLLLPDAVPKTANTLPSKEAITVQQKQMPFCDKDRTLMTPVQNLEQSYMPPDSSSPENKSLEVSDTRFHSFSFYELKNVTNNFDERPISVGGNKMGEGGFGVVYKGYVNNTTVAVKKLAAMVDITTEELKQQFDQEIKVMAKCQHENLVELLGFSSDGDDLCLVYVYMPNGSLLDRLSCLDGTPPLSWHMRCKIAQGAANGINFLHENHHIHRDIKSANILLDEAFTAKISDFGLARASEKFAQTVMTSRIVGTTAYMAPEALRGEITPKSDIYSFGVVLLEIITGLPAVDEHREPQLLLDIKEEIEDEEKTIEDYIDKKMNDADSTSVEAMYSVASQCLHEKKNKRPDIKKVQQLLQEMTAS
Format: biochemical
Description: A 1× kinase base buffer was prepared from 50 mM HEPES, pH 7.5 and 0.0015% Brij-35. A stop buffer was prepared from 100 mM HEPES, pH 7.5, 0.015% Brij-35, 0.2% Coating Reagent #3, and 50 mM EDTA.
Test compound was diluted to 50× of the final desired highest inhibitor concentration in reaction by 100% DMSO. 100 ul of this compound dilution was transferred to a well in a 96-well plate.
Test compound was serially diluted by transferring 30 μl to 60 μl of 100% DMSO in the next well and so forth for a total of 10 concentrations. 100 μl of 100% DMSO was added to two empty wells for no compound control and no enzyme control in the same 96-well plate.
A new 96-well plate was marked as intermediate plate. 5 μl of compound serial dilution was transferred from source plate to the corresponding wells of the intermediate plate. 45 μl of 1× kinase base buffer (KB buffer) was added to each well of the intermediate plate. The intermediate plate was placed for 10 min on a shaker.
5 μl of each well was transferred from the 96-well intermediate plate to a 384-well plate in duplicates. For example, A1 of the 96-well plate is transferred to A1 and A2 of the 384-well plate. A2 of the 96-well plate is transferred to A3 and A4 of the 384-well plate, and so on.
IRAK4 and DTT in 1× kinase base buffer was added. The 2.5× enzyme mix contained 8.8 nM IRAK4 and 5 mM DTT.
Peptide 8, ATP, MgCl2 and MnCl2 were added in the 1× kinase base buffer. The 2.5× peptide mix contained 3.75 μM peptide 8, 92.5 μM ATP, 12.5 mM MgCl2 and 2.5 mM MnCl2.
Assay plate already contained 5 μl of compound in 10% DMSO. Added 10 μl of 2.5× enzyme solution to each well of the 384-well assay plate, except no enzyme control wells. The final concentration of IRAK4 in reaction was 3.5 nM. Added 10 μl of 1× kinase base buffer to no enzyme control wells in the assay plate. Incubated at room temperature for 10 min.
Added 10 μl of 2.5× peptide solution to each well of the 384-well assay plate. The final concentration of Peptide 8 and ATP was 1.5 μM and 37 μM, respectively. Incubated at 28° C. for 40 minutes. Added 25 μl of stop buffer to stop reaction. Collected data on Caliper.
Copied conversion % data from Caliper program. Converted conversion % values to percent inhibition values. Percent inhibition=(max-conversion %)/(max-min)*100, where “max” means the conversion % of DMSO control and “min” means the conversion % of no enzyme control.

Compound | IC50 [µM]
c1ccc(Nc2nc(N[C@H]3CC[C@H](N4CCOCC4)CC3)c3c4c(sc3n2)CCC4)cc1 [Compound I-1, N4-((1r,4r)-4-morpholinocyclohexyl)-N2-phenyl-6,7-dihydro-5H-cyclopenta[4,5]thieno[2,3-d]pyrimidine-2,4-diamine] | ≤ 5
CN(C)[C@H]1CC[C@H](Oc2nc(Nc3ccccc3)nc3sc4c(c23)CCC4)CC1 [Compound I-2, 12-[[4-(dimethylamino)cyclohexyl]oxy]-N-phenyl-7-thia-9,11-diazatricyclo[6.4.0.0[2,6]]dodeca-1(8),2(6),9,11-tetraen-10-amine] | ≤ 5
Fc1cccc(Nc2nc(N[C@H]3CC[C@H](N4CCOCC4)CC3)c3c4c(sc3n2)CCC4)c1 [Compound I-3, N2-(3-fluorophenyl)-N4-((1r,4r)-4-morpholinocyclohexyl)-6,7-dihydro-5H-cyclopenta[4,5]thieno[2,3-d]pyrimidine-2,4-diamine] | ≤ 5
Cc1cccc(Nc2nc(N[C@H]3CC[C@H](N4CCOCC4)CC3)c3c4c(sc3n2)CCC4)c1 [Compound I-4, N4-((1r,4r)-4-morpholinocyclohexyl)-N2-(m-tolyl)-6,7-dihydro-5H-cyclopenta[4,5]thieno[2,3-d]pyrimidine-2,4-diamine] | ≤ 5
COc1cccc(Nc2nc(N[C@H]3CC[C@H](N4CCOCC4)CC3)c3c4c(sc3n2)CCC4)c1 [Compound I-5, 10-N-(3-methoxyphenyl)-12-N-[4-(morpholin-4-yl)cyclohexyl]-7-thia-9,11-diazatricyclo[6.4.0.0^[2,6]]dodeca-1(8),2(6),9,11-tetraene-10,12-diamine] | ≤ 5
Cc1ccc(Nc2nc(N[C@H]3CC[C@H](N4CCOCC4)CC3)c3c4c(sc3n2)CCC4)cc1 [Compound I-6, N4-((1r,4r)-4-morpholinocyclohexyl)-N2-(p-tolyl)-6,7-dihydro-5H-cyclopenta[4,5]thieno[2,3-d]pyrimidine-2,4-diamine] | 20 to 50
c1ccc(Nc2nc(N[C@H]3CC[C@H](N4CCOCC4)CC3)c3c4c(sc3n2)CCCC4)cc1 [Compound I-7, 3-N-[4-(morpholin-4-yl)cyclohexyl]-5-N-phenyl-8-thia-4,6-diazatricyclo[7.4.0.0[2,7]]trideca-1(9),2,4,6-tetraene-3,5-diamine] | ≤ 5
c1coc(Nc2nc(N[C@H]3CC[C@H](N4CCOCC4)CC3)c3c4c(sc3n2)CCCC4)n1 [Compound I-8, 3-N-[4-(morpholin-4-yl)cyclohexyl]-5-N-(1,3-oxazol-2-yl)-8-thia-4,6-diazatricyclo[7.4.0.0[2,7]]trideca-1(9),2(7),3,5-tetraene-3,5-diamine] | 5 to 20
c1coc(Nc2nc(N[C@H]3CC[C@H](N4CCOCC4)CC3)c3c4c(sc3n2)CCC4)n1 [Compound I-9, 12-N-[4-(morpholin-4-yl)cyclohexyl]-10-N-(1,3-oxazol-2-yl)-7-thia-9,11-diazatricyclo[6.4.0.0[2,6]]dodeca-1(8),2(6),9,11-tetraene-10,12-diamine] | 5 to 20
CN1CCC(c2ccc(Nc3nc(N[C@H]4CC[C@H](N5CCOCC5)CC4)c4c5c(sc4n3)CCC5)cc2)CC1 [Compound I-10, 10-N-[4-(1-methylpiperidin-4-yl)phenyl]-12-N-[4-(morpholin-4-yl)cyclohexyl]-7-thia-9,11-diazatricyclo[6.4.0.0[2,6]]dodeca-1(8),2(6),9,11-tetraene-10,12-diamine] | ≤ 5
c1c[nH]c(Nc2nc(N[C@H]3CC[C@H](N4CCOCC4)CC3)c3c4c(sc3n2)CCC4)n1 [Compound I-11, 10-N-(1H-imidazol-2-yl)-12-N-[4-(morpholin-4-yl)cyclohexyl]-7-thia-9,11-diazatricyclo[6.4.0.0[2,6]]dodeca-1(8),2(6),9,11-tetraene-10,12-diamine] | 20 to 50
c1c[nH]c(Nc2nc(N[C@H]3CC[C@H](N4CCOCC4)CC3)c3c4c(sc3n2)CCCC4)n1 [Compound I-12, 5-N-(1H-imidazol-2-yl)-3-N-[4-(morpholin-4-yl)cyclohexyl]-8-thia-4,6-diazatricyclo[7.4.0.0[2,7]]trideca-1(9),2(7),3,5-tetraene-3,5-diamine] | 20 to 50
CN(C)[C@H]1CC[C@H](Oc2nc(Nc3ccc(N4CCNCC4)cc3)nc3sc4c(c23)CCC4)CC1 [Compound I-13, 12-[[4-(dimethylamino)cyclohexyl]oxy]-N-[4-(piperazin-1-yl)phenyl]-7-thia-9,11-diazatricyclo[6.4.0.0[2,6]]dodeca-1(8),2(6),9,11-tetraen-10-amine] | ≤ 5
Cn1cc(Nc2nc(NC3CCCCC3)c3c4c(sc3n2)CCC4)cn1 [Compound I-15, 12-N-cyclohexyl-10-N-(1-methyl-1H-pyrazol-4-yl)-7-thia-9,11-diazatricyclo[6.4.0.0[2,6]]dodeca-1(8),2(6),9,11-tetraene-10,12-diamine] | ≤ 5
Cn1cc(Nc2nc(N[C@H]3CC[C@H](O)CC3)c3c4c(sc3n2)CCC4)cn1 [Compound I-16, 4-([10-[(1-methyl-1H-pyrazol-4-yl)amino]-7-thia-9,11-diazatricyclo[6.4.0.0[2,6]]dodeca-1(8),2(6),9,11-tetraen-12-yl]amino)cyclohexan-1-ol] | ≤ 5
CN(C)[C@H]1CC[C@H](Oc2nc(Nc3ccccc3)nc3sc4c(c23)C(CC(N)=O)CC4)CC1 (stereo partly drawn) [Compound I-17, 2-(12-[[4-(dimethylamino)cyclohexyl]oxy]-10-(phenylamino)-7-thia-9,11-diazatricyclo[6.4.0.0^[2,6]]dodeca-1(12),2(6),8,10-tetraen-3-yl)acetamide] | ≤ 5
CN(C)[C@H]1CC[C@H](Oc2nc(Nc3ccc(N4CCNCC4)cc3)nc3sc4c(c23)C(CC(N)=O)CC4)CC1 (stereo partly drawn) [Compound I-18, 2-(12-[[4-(dimethylamino)cyclohexyl]oxy]-10-[[4-(piperazin-1-yl)phenyl]amino]-7-thia-9,11-diazatricyclo[6.4.0.0[2,6]]dodeca-1(12),2(6),8,10-tetraen-3-yl)acetamide] | ≤ 5
Cn1cc(Nc2nc(O[C@H]3CC[C@H](N(C)C)CC3)c3c4c(sc3n2)CCC4CC(N)=O)cn1 (stereo partly drawn) [Compound I-20, 2-(12-[[4-(dimethylamino)cyclohexyl]oxy]-10-[(1-methyl-1H-pyrazol-4-yl)amino]-7-thia-9,11-diazatricyclo[6.4.0.0[2,6]]dodeca-1(8),2(6),9,11-tetraen-3-yl)acetamide] | ≤ 5
Cn1cc(Nc2nc(O[C@H]3CC[C@H](N(C)C)CC3)c3c4c(sc3n2)CC[C@H]4CC(N)=O)cn1 [Compound I-21, 2-[(3S)-12-[[4-(dimethylamino)cyclohexyl]oxy]-10-[(1-methyl-1H-pyrazol-4-yl)amino]-7-thia-9,11-diazatricyclo[6.4.0.0[2,6]]dodeca-1(8),2(6),9,11-tetraen-3-yl]acetamide] | ≤ 5
CN1CCC(c2ccc(Nc3nc(N[C@H]4CC[C@H](N(C)C)CC4)c4c5c(sc4n3)CCC5)cc2)CC1 [Compound I-67, N4-((1r,4r)-4-(dimethylamino)cyclohexyl)-N2-(4-(1-methylpiperidin-4-yl)phenyl)-6,7-dihydro-5H-cyclopenta[4,5]thieno[2,3-d]pyrimidine-2,4-diamine] | ≤ 5
CN1CCN(c2ccc(Nc3nc(O[C@H]4CC[C@H](N(C)C)CC4)c4c5c(sc4n3)CCC5)cc2)CC1 [Compound I-68, 12-[[4-(dimethylamino)cyclohexyl]oxy]-N-[4-(4-methylpiperazin-1-yl)phenyl]-7-thia-9,11-diazatricyclo[6.4.0.0[2,6]]dodeca-1(8),2(6),9,11-tetraen-10-amine] | ≤ 5
